These are literature values, as cited in patent US8178547B2, “Heterocyclic antiviral compounds” (Roche Palo Alto LLC, priority 2008, dated 2012).

In this series the test system is HCV. To be noted: cited from earlier work.

Regarding `NC(=O)c1ncn([C@@H]2O[C@H](CO)[C@@H](O)[C@H]2O)n1` [ribavirin, 1-((2R,3R,4S,5R)-3,4-Dihydroxy-5-hydroxymethyl-tetrahydro-furan-2-yl)-1H[1,2,4]triazole-3-carboxylic acid amide], the “serum levels of HCV-RNA” value (monotherapy / sole treatment) is “does not lower serum levels of HCV-RNA”. The “patients with serum amino transferase levels reduced to normal” value (monotherapy) is given as 40%.
